Test in all cases: Test A postemergence
Assay type in all cases: in vivo

Test [1] relates to giant foxtail (Setaria faberii). Particulars: Setaria faberi, post-emergence, 240 h; for pest or weed control at 125 g/ha: 125 g ai/ha; for pest or weed control at 500 g/ha: 500 g ai/ha. The essentials:
(§1)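 Visual injury scores from 0, no effect, to 100, complete control, were assigned versus untreated controls roughly 10 d after treatment in the greenhouse. Test chemicals, formulated with surfactant in a non-phytotoxic solvent, were applied to planted seeds as a preemergence soil spray or postemergence to one- to two-leaf plants 2 to 10 cm tall, in loam–sand soil.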

Test [2] has as its system Kochia (Kochia scoparia). Particulars: Bassia scoparia, post-emergence, 240 h; for pest or weed control at 125 g/ha: 125 g ai/ha; for pest or weed control at 500 g/ha: 500 g ai/ha. The essentials: as §1
Test [3] concerns wheat (Triticum aestivum). Particulars: Triticum aestivum, post-emergence, 240 h; for plant injury at 125 g/ha: 125 g ai/ha; for plant injury at 500 g/ha: 500 g ai/ha. The essentials:
as §1

In test [4] the test system is pigweed (Amaranthus retroflexus). As to conditions: Amaranthus retroflexus, post-emergence, 240 h; for pest or weed control at 125 g/ha: 125 g ai/ha; for pest or weed control at 500 g/ha: 500 g ai/ha. The method in brief:
as §1

For test [5], the system named is ryegrass, Italian (Italian ryegrass, Lolium multiflorum). Particulars: Lolium multiflorum, post-emergence, 240 h; for pest or weed control at 125 g/ha: 125 g ai/ha; for pest or weed control at 500 g/ha: 500 g ai/ha. The method in brief:
as §1

In test [6] the test system is blackgrass (Alopecurus myosuroides). As to conditions: Alopecurus myosuroides, post-emergence, 240 h; for pest or weed control at 125 g/ha: 125 g ai/ha; for pest or weed control at 500 g/ha: 500 g ai/ha. The method in brief: as §1
[7] abbreviates: postemergence, 0 to 100 scale, 0 is no effect, 100 is complete control, read-out: Foxtail, Giant plant response rating.
[8] abbreviates: postemergence, 0 to 100 scale, 0 is no effect, 100 is complete control, read-out: Kochia plant response rating.
Setting [9] is: postemergence, 0 to 100 scale, 0 is no effect, 100 is complete control, read-out: Wheat plant response rating.
Setting [10] is: postemergence, 0 to 100 scale, 0 is no effect, 100 is complete control, read-out: Pigweed plant response rating.
The mark [11] stands for this setting: postemergence, 0 to 100 scale, 0 is no effect, 100 is complete control, read-out: Ryegrass, Italian plant response rating.
Setting [12] is: postemergence, 0 to 100 scale, 0 is no effect, 100 is complete control, read-out: Blackgrass plant response rating.
The mark [13] stands for this setting: Postemergence, visual injury after approximately 10 d, 0 to 100 scale where 0 is no effect and 100 is complete control, read-out: Plant response rating, Foxtail, Giant.
The mark [14] stands for this setting: Postemergence, visual injury after approximately 10 d, 0 to 100 scale where 0 is no effect and 100 is complete control, read-out: Plant response rating, Kochia.
Setting [15] is: Postemergence, visual injury after approximately 10 d, 0 to 100 scale where 0 is no effect and 100 is complete control, read-out: Plant response rating, Wheat.
The mark [16] stands for this setting: Postemergence, visual injury after approximately 10 d, 0 to 100 scale where 0 is no effect and 100 is complete control, read-out: Plant response rating, Pigweed.
Setting [17] is: Postemergence, visual injury after approximately 10 d, 0 to 100 scale where 0 is no effect and 100 is complete control, read-out: Plant response rating, Ryegrass, Italian.
[18] abbreviates: Postemergence, visual injury after approximately 10 d, 0 to 100 scale where 0 is no effect and 100 is complete control, read-out: Plant response rating, Blackgrass.
The mark [19] stands for this setting: postemergence, visual injury rating after approximately 10 d, read-out: Foxtail, Giant plant response rating (0 to 100 scale, 0 no effect, 100 complete control).
Setting [20] is: postemergence, visual injury rating after approximately 10 d, read-out: Kochia plant response rating (0 to 100 scale, 0 no effect, 100 complete control).
[21] abbreviates: postemergence, visual injury rating after approximately 10 d, read-out: Wheat plant response rating (0 to 100 scale, 0 no effect, 100 complete control).
Setting [22] is: postemergence, visual injury rating after approximately 10 d, read-out: Pigweed plant response rating (0 to 100 scale, 0 no effect, 100 complete control).
The mark [23] stands for this setting: postemergence, visual injury rating after approximately 10 d, read-out: Ryegrass, Italian plant response rating (0 to 100 scale, 0 no effect, 100 complete control).
The mark [24] stands for this setting: postemergence, visual injury rating after approximately 10 d, read-out: Blackgrass plant response rating (0 to 100 scale, 0 no effect, 100 complete control).

Molecules are shown by their SMILES. Read-outs that look alike come from different tables or passages of the source.

For the compound `Cc1nc([C@H]2CNC(=O)[C@@H]2C(=O)Nc2cccc(F)c2F)cs1` [Compound 1180], the pest or weed control at 125 g/ha in test [1] (postemergence, visual injury vs untreated controls after approx. 10 d, 0 = no effect, 100 = complete control, read-out: Foxtail, Giant plant response rating (0 to 100 scale)) was 0%; in test [2] (postemergence, visual injury vs untreated controls after approx. 10 d, 0 = no effect, 100 = complete control, read-out: Kochia plant response rating (0 to 100 scale)), 0%; in test [4] (postemergence, visual injury vs untreated controls after approx. 10 d, 0 = no effect, 100 = complete control, read-out: Pigweed plant response rating (0 to 100 scale)) it was 0%; in test [5] (postemergence, visual injury vs untreated controls after approx. 10 d, 0 = no effect, 100 = complete control, read-out: Ryegrass, Italian plant response rating (0 to 100 scale)), 0%; in test [6] (postemergence, visual injury vs untreated controls after approx. 10 d, 0 = no effect, 100 = complete control, read-out: Blackgrass plant response rating (0 to 100 scale)), 0%. Also, the pest or weed control at 500 g/ha in test [1] (setting [7]), in test [2] (setting [8]), in test [4] (setting [10]), in test [5] (setting [11]) and in test [6] (setting [12]) was 0% in each case. Moreover, in test [3] (postemergence, visual injury vs untreated controls after approx. 10 d, 0 = no effect, 100 = complete control, read-out: Wheat plant response rating (0 to 100 scale)), the plant injury at 125 g/ha was determined as 0%. Moreover, the plant injury at 500 g/ha in test [3] (setting [9]) came to 0%.
Turning to `COc1ccc([C@H]2CN(C)C(=O)[C@@H]2C(=O)Nc2cccc(F)c2F)cc1F` [Compound 1021], the pest or weed control at 125 g/ha in test [1] (setting [13]) came to 90%; in test [2] (setting [14]), 70%; in test [4] (setting [16]), 0%; in test [5] (setting [17]), 40%; in test [6] (setting [18]), 20%. Besides, the pest or weed control at 500 g/ha in test [1] (postemergence, visual injury, 0 to 100 scale (0 no effect, 100 complete control), approx. 10 d, read-out: Plant response rating, Foxtail, Giant) was 90%; in test [2] (postemergence, visual injury, 0 to 100 scale (0 no effect, 100 complete control), approx. 10 d, read-out: Plant response rating, Kochia) it was 70%; in test [4] (postemergence, visual injury, 0 to 100 scale (0 no effect, 100 complete control), approx. 10 d, read-out: Plant response rating, Pigweed), 50%; in test [5] (postemergence, visual injury, 0 to 100 scale (0 no effect, 100 complete control), approx. 10 d, read-out: Plant response rating, Ryegrass, Italian), 70%; in test [6] (postemergence, visual injury, 0 to 100 scale (0 no effect, 100 complete control), approx. 10 d, read-out: Plant response rating, Blackgrass) it was 50%. Besides, the plant injury at 125 g/ha in test [3] (setting [15]) came out at 40%. The plant injury at 500 g/ha in test [3] (postemergence, visual injury, 0 to 100 scale (0 no effect, 100 complete control), approx. 10 d, read-out: Plant response rating, Wheat) was 60%.
With `Cc1ccc([C@H]2CNC(=S)[C@@H]2C(=O)Nc2cccc(F)c2F)cc1` (racemic) [Compound 946], the pest or weed control at 125 g/ha in test [1] (setting [13]), in test [2] (setting [14]), in test [4] (setting [16]), in test [5] (setting [17]) and in test [6] (setting [18]) was 0% throughout. In addition, in test [3] (setting [15]), the plant injury at 125 g/ha was found to be 0%.
For `CSc1ccccc1NC(=O)[C@H]1C(=O)NC[C@@H]1c1cc(F)c(F)c(F)c1` [Compound 1124], the pest or weed control at 125 g/ha in test [1] (postemergence, visual injury on 0 to 100 scale (0 no effect, 100 complete control), approx. 10 d, read-out: Foxtail, Giant plant response rating) amounted to 60%; in test [2] (postemergence, visual injury on 0 to 100 scale (0 no effect, 100 complete control), approx. 10 d, read-out: Kochia plant response rating), 60%; in test [4] (postemergence, visual injury on 0 to 100 scale (0 no effect, 100 complete control), approx. 10 d, read-out: Pigweed plant response rating) it was 0%; in test [5] (postemergence, visual injury on 0 to 100 scale (0 no effect, 100 complete control), approx. 10 d, read-out: Ryegrass, Italian plant response rating) it was 0%; in test [6] (postemergence, visual injury on 0 to 100 scale (0 no effect, 100 complete control), approx. 10 d, read-out: Blackgrass plant response rating) it was 0%. Besides, the pest or weed control at 500 g/ha was determined as 90% in test [1] (setting [7]); 70% in test [2] (setting [8]); 60% in test [4] (setting [10]); 0% in test [5] (setting [11]); 0% in test [6] (setting [12]). In test [3] (postemergence, visual injury on 0 to 100 scale (0 no effect, 100 complete control), approx. 10 d, read-out: Wheat plant response rating), the plant injury at 125 g/ha amounted to 0%. The plant injury at 500 g/ha in test [3] (setting [9]) was 0%.
For `CN1C[C@H](c2csc(C(F)(F)F)c2)[C@@H](C(=O)Nc2cccc(F)c2F)C1=O` [Compound 959], the pest or weed control at 125 g/ha in test [1] (setting [13]) was found to be 80%; in test [2] (setting [14]) it was 50%; in test [4] (setting [16]), 0%; in test [5] (setting [17]), 30%; in test [6] (setting [18]), 30%. For the same compound, in test [3] (setting [15]), the plant injury at 125 g/ha turned out to be 20%.
As for `COc1c(F)ccc([C@H]2CN(C)C(=O)[C@@H]2C(=O)Nc2ccccc2S(C)(=O)=O)c1Cl` [Compound 897], the pest or weed control at 125 g/ha worked out at 80% in test [1] (setting [19]); 30% in test [2] (setting [20]); 0% in test [4] (setting [22]); 20% in test [5] (setting [23]); 30% in test [6] (setting [24]). Besides, in test [3] (setting [21]), the plant injury at 125 g/ha worked out at 30%.
For the compound `Cc1c(F)ccc([C@H]2CNC(=O)[C@@H]2C(=O)Nc2ccc(F)c(F)c2F)c1F` [Compound 830], the pest or weed control at 125 g/ha in test [1] (setting [19]) was determined as 70%; in test [2] (setting [20]), 30%; in test [4] (setting [22]) it was 0%; in test [5] (setting [23]), 20%; in test [6] (setting [24]), 20%. Besides, the plant injury at 125 g/ha in test [3] (setting [21]) came to 0%.

For the origin of these results see patent US12077503B2, “Substituted cyclic amides and their use as herbicides” (FMC CORPORATION, priority 2015, dated 2024).
